# Data: patent publication US7291641B2, “Derivatives of heterocycles with 5 members, their preparation and their use as medicaments” (Societe de Conseils de Recherches et d'Applications …, priority 1999, dated 2007)
# Structures can show the parent of a compound that is named as a salt.
row,melting point [°C],Structure (SMILES)
1,204 to 210,"CCN(CC)c1ccc(-c2c[nH]c([C@@H](NC3CCCCC3)C3CCCCC3)n2)cc1 (as salt: hydrochloride) [Example 292, 4-{2-[(S)-cyclohexyl(cyclohexylamino)methyl]-1H-imidazol-4-yl}-N,N-diethylaniline]"
2,190 to 192,"Fc1ccc(-c2c[nH]c([C@@H](NCC3CCCCC3)C3CCCCC3)n2)cc1 (as salt: hydrochloride) [Example 295, (S)-1-cyclohexyl-N-(cyclohexylmethyl)-1-[4-(4-fluorophenyl)-1H-imidazol-2-yl]methanamine]"
3,214.1,"FC(F)(F)c1ccc(-c2c[nH]c([C@@H](NC3CCCCC3)C3CCCCC3)n2)cc1 (as salt: hydrochloride) [Example 296, N-((S)-cyclohexyl{4-[4-(trifluoromethyl)phenyl]-1H-imidazol-2-yl}methyl)cyclohexanamine]"
4,230.4,"Brc1cccc(-c2c[nH]c([C@@H](NC3CCCCC3)C3CCCCC3)n2)c1 (as salt: hydrochloride) [Example 297, N-[(S)-[4-(3-bromophenyl)-1H-imidazol-2-yl](cyclohexyl)methyl]-cyclohexanamine]"
5,206.3,"Brc1cccc(-c2c[nH]c([C@@H](NCC3CCCCC3)C3CCCCC3)n2)c1 (as salt: hydrochloride) [Example 306, (S)-1-[4-(3-bromophenyl)-1H-imidazol-2-yl]-1-cyclohexyl-N-(cyclohexylmethyl)methanamine]"
6,198 to 200,"FC(F)(F)c1cccc(-c2c[nH]c([C@@H](NCC3CCCCC3)C3CCCCC3)n2)c1 (as salt: hydrochloride) [Example 307, (S)-1-cyclohexyl-N-(cyclohexylmethyl)-1-{4-[3-(trifluoromethyl)-phenyl]-1H-imidazol-2-yl}methanamine]"
7,148 to 149,"N[C@H](CC1CCCCC1)c1nc(-c2ccc(F)cc2)c[nH]1 (as salt: hydrochloride) [Example 308, (1R)-2-cyclohexyl-1-[4-(4-fluorophenyl)-1H-imidazol-2-yl]ethanamine]"
8,180 to 186,"Fc1cccc(-c2c[nH]c([C@@H](NCC3CCCCC3)C3CCCCC3)n2)c1 (as salt: hydrochloride) [Example 312, (S)-1-cyclohexyl-N-(cyclohexylmethyl)-1-[4-(3-fluorophenyl)-1H-imidazol-2-yl]methanamine]"
9,213.9,"Fc1cccc(-c2c[nH]c([C@@H](NC3CCCCC3)C3CCCCC3)n2)c1 (as salt: hydrochloride) [Example 314, N-{(S)-cyclohexyl[4-(3-fluorophenyl)-1H-imidazol-2-yl]methyl}cyclohexanamine]"
10,188.2,"Fc1ccc(-c2c[nH]c([C@H](NCC3CCCCC3)C3CCCCC3)n2)cc1 (as salt: hydrochloride) [Example 318, (R)-1-cyclohexyl-N-(cyclohexylmethyl)-1-[4-(4-fluorophenyl)-1H-imidazol-2-yl]methanamine]"
11,210 to 213,"Fc1ccc(-c2c[nH]c([C@@H](Cc3ccccc3)NC3CCCCC3)n2)cc1 (as salt: hydrochloride) [Example 327, N-{(1R)-1-[4-(4-fluorophenyl)-1H-imidazol-2-yl]-2-phenylethyl}cyclohexanamine]"

# Second part, the compound before the results:
row,Structure (SMILES),melting point [°C]
1,"CCN(CC)c1ccc(-c2c[nH]c([C@@H](N)C3CCCCC3)n2)cc1 (as salt: hydrochloride) [Example 310, 4-{2-[(S)-amino(cyclohexyl)methyl]-1H-imidazol-4-yl}-N,N-diethylaniline]",216 to 217
2,"N[C@H](c1nc(-c2cccc(F)c2)c[nH]1)C1CCCCC1 (as salt: hydrochloride) [Example 311, (S)-1-cyclohexyl-1-[4-(3-fluorophenyl)-1H-imidazol-2-yl]methanamine]",238 to 241
3,"CC(C)(C)c1cc(-c2c[nH]c([C@@H](N)C3CCCCC3)n2)cc(C(C)(C)C)c1O (as salt: hydrochloride) [Example 316, 4-{2-[(S)-amino(cyclohexyl)methyl]-1H-imidazol-4-yl}-2,6-ditert-butylphenol]",222 to 228
4,"CCCCOC(=O)NCCc1nc(-c2ccc(N3CCCC3)cc2)c[nH]1 (as salt: hydrochloride) [Example 317, butyl 2-[4-(4-pyrrolidin-1-ylphenyl)-1H-imidazol-2-yl]ethylcarbamate]",165 to 166
5,"N[C@H](Cc1ccccc1)c1nc(-c2ccc(F)cc2)c[nH]1 (as salt: hydrochloride) [Example 324, (1R)-1-[4-(4-fluorophenyl)-1H-imidazol-2-yl]-2-phenylethanamine]",173 to 180
6,"CC(C)(C)c1cc(-c2c[nH]c(CCNC(=O)OCC3CCCCC3)n2)cc(C(C)(C)C)c1O (as salt: hydrochloride) [Example 329, cyclohexylmethyl 2-[4-(3,5-ditert-butyl-4-hydroxyphenyl)-1H-imidazol-2-yl]ethylcarbamate]",111.5
7,"O=C(NCCc1nc(-c2ccc(-c3ccc(Br)cc3)cc2)c[nH]1)OCC1CCC1 (as salt: hydrochloride) [Example 337, cyclobutylmethyl 2-[4-(4′-bromo-1,1′-biphenyl-4-yl)-1H-imidazol-2-yl]ethylcarbamate]",214 to 215
8,"NCCCc1nc(-c2ccc(F)cc2)c[nH]1 (as salt: hydrochloride) [Example 343, 3-[4-(4-fluorophenyl)-1H-imidazol-2-yl]propan-1-amine]",245 to 246
9,"CCCCCCC(NCc1ccccc1)c1nc(-c2cccc(Br)c2)c[nH]1 (racemic) (as salt: acetate) [Example 193, (R,S)-N-benzyl-1-[4-(3-bromophenyl)-1H-imidazol-2-yl]-1-heptanamine]",115 to 116
10,"CCCCCCC(NCC(C)C)c1nc(-c2ccccc2)c[nH]1 (racemic) (as salt: acetate) [Example 234, (R,S)-N-isobutyl-1-(4-phenyl-1H-imidazol-2-yl)-1-heptanamine]",70 to 72
11,"CCCCCC(N)c1nc(-c2ccccc2)c[nH]1 (racemic) (as salt: hydrochloride) [Example 65, (R,S)-1-(4-phenyl-1H-imidazol-2-yl)hexylamine]",146 to 148
12,"CCCCCCC(N)c1nc(-c2cccc(OC)c2)c[nH]1 (racemic) (as salt: hydrochloride) [Example 69, (R,S)-1-[4-(3-methoxyphenyl)-1H-imidazol-2-yl]heptylamine]",110 to 112
13,"CCCCCCC(NC1CCC1)c1nc(-c2ccc(F)cc2)c[nH]1 (racemic) (as salt: hydrochloride) [Example 84, (R,S)-N-{1-[4-(4-fluorophenyl)-1H-imidazol-2-yl]heptyl}-cyclobutanamine]",144 to 146
14,"Cn1cc(CC(N)c2nc(-c3ccccc3)c[nH]2)c2ccccc21 (racemic) (as salt: hydrochloride) [Example 92, (R,S)-2-(1-methyl-1H-indol-3-yl)-1-(4-phenyl-1H-imidazol-2-yl)ethylamine]",110 to 114
15,"NC(Cc1c[nH]c2cc(Cl)ccc12)c1nc(-c2ccccc2)c[nH]1 (racemic) (as salt: hydrochloride) [Example 122, (R,S)-2-(6-chloro-1H-indol-3-yl)-1-(4-phenyl-1H-imidazol-2-yl)ethylamine]",210 to 212
16,"CCCCCCC(N)c1nc(-c2ccccc2)c[nH]1 (racemic) (as salt: hydrochloride) [Example 142, (R,S)-1-(4-phenyl-1H-imidazol-2-yl)heptylamine]",131 to 134
17,"CCCCC(N)c1nc(-c2ccc(-c3ccccc3)cc2)c[nH]1 (racemic) (as salt: hydrochloride) [Example 175, (R,S)-1-(4-[1,1′-biphenyl]-4-yl-1H-imidazol-2-yl)-1-pentanamine]",197 to 200
18,"CCCCC(N)c1nc(-c2ccccc2)c[nH]1 (racemic) (as salt: hydrochloride) [Example 181, (R,S)-1-(4-phenyl-1H-imidazol-2-yl)pentylamine]",178 to 180
19,"CCCCCCC(N)c1nc(-c2ccc(C)cc2)c[nH]1 (racemic) (as salt: hydrochloride) [Example 184, (R,S)-1-[4-(4-methylphenyl)-1H-imidazol-2-yl]-1-heptanamine]",157 to 160
20,"CCCCCCC(N)c1nc(-c2ccccc2OC)c[nH]1 (racemic) (as salt: hydrochloride) [Example 185, (R,S)-1-[4-(2-methoxyphenyl)-1H-imidazol-2-yl]heptylamine]",238 to 240
21,"CCCCCCC(N)c1nc(-c2ccc(-c3ccccc3)cc2)c[nH]1 (racemic) (as salt: hydrochloride) [Example 188, (R,S)-1-(4-[1,1′-biphenyl]-4-yl-1H-imidazol-2-yl)-heptanamine]",182 to 184
22,"CCCCCCC(N)c1nc(-c2ccc(OC)cc2)c[nH]1 (racemic) (as salt: hydrochloride) [Example 190, (R,S)-1-[4-(4-methoxyphenyl)-1H-imidazol-2-yl]heptylamine]",231 to 232
23,"CCCCCCC(N)c1nc(-c2cccc(Br)c2)c[nH]1 (racemic) (as salt: hydrochloride) [Example 191, (R,S)-1-[4-(3-bromophenyl)-1H-imidazol-2-yl]-1-heptanamine]",230 to 231
24,"CCCCCCC(NCc1ccccc1)c1nc(-c2ccc(C)cc2)c[nH]1 (racemic) (as salt: hydrochloride) [Example 200, (R,S)-N-benzyl-1-[4-(4-methylphenyl)-1H-imidazol-2-yl]-1-heptanamine]",185 to 188
25,"CCCCCCC(N)c1nc(-c2ccc(C#N)cc2)c[nH]1 (racemic) (as salt: hydrochloride) [Example 205, (R,S)-4-[2-(1-aminoheptyl)-1H-imidazol-4-yl]benzonitrile]",218 to 220
26,"CCCCCCC(N)c1nc(-c2cc(C(C)(C)C)c(O)c(C(C)(C)C)c2)c[nH]1 (racemic) (as salt: hydrochloride) [Example 210, (R,S)-4-[2-(1-aminoheptyl)-1H-imidazol-4-yl]-2,6-di(tert-butyl)-phenol]",204 to 206
